Laboratory results published in paper PMC11968843, “Sulphostin-inspired N-phosphonopiperidones as selective covalent DPP8 and DPP9 inhibitors” (Nature Communications, 2025).

Columns and labels:
Assay in all cases: Competitive ABPP / direct target identification with alkyne probe 9 in HEK293 cell lysates
Type in all cases: binding, H. sapiens
[1] = molecular target: T1, HEK293 cell lysates (proteome-wide targets of probe 9) (Homo sapiens, UniProt P10599); details: protein TXN
T1 construct: endogenous in cells; host or cells: HEK293 cell lysate

[2] = molecular target: T2, HEK293 cell lysates (proteome-wide targets of probe 9) (Homo sapiens, UniProt P63261); details: protein ACTG1
T2 construct: endogenous in cells; host or cells: HEK293 cell lysate

[3] = molecular target: T3, HEK293 cell lysates (proteome-wide targets of probe 9) (Homo sapiens, UniProt P22626); details: protein HNRNPA2B1;HNRPA2B1
T3 construct: endogenous in cells; host or cells: HEK293 cell lysate

[4] = molecular target: T4, HEK293 cell lysates (proteome-wide targets of probe 9) (Homo sapiens, UniProt P61247); details: protein RPS3A
T4 construct: endogenous in cells; host or cells: HEK293 cell lysate

[5] = molecular target: T5, HEK293 cell lysates (proteome-wide targets of probe 9) (Homo sapiens, UniProt P81605); details: protein DCD
T5 construct: endogenous in cells; host or cells: HEK293 cell lysate

[6] = molecular target: T6, HEK293 cell lysates (proteome-wide targets of probe 9) (Homo sapiens, UniProt Q04837); details: protein SSBP1
T6 construct: endogenous in cells; host or cells: HEK293 cell lysate

[7] = molecular target: T7, HEK293 cell lysates (proteome-wide targets of probe 9) (Homo sapiens, UniProt P09651); details: protein HNRNPA1
T7 construct: endogenous in cells; host or cells: HEK293 cell lysate

[8] = molecular target: T8, HEK293 cell lysates (proteome-wide targets of probe 9) (Homo sapiens, UniProt P31948); details: protein STIP1
T8 construct: endogenous in cells; host or cells: HEK293 cell lysate

[9] = molecular target: T9, HEK293 cell lysates (proteome-wide targets of probe 9) (Homo sapiens, UniProt P23396); details: protein RPS3
T9 construct: endogenous in cells; host or cells: HEK293 cell lysate

[10] = molecular target: T10, HEK293 cell lysates (proteome-wide targets of probe 9) (Homo sapiens, UniProt P46781); details: protein RPS9
T10 construct: endogenous in cells; host or cells: HEK293 cell lysate

[11] = molecular target: T11, HEK293 cell lysates (proteome-wide targets of probe 9) (Homo sapiens, UniProt P05165); details: protein PCCA
T11 construct: endogenous in cells; host or cells: HEK293 cell lysate

[12] = molecular target: T12, HEK293 cell lysates (proteome-wide targets of probe 9) (Homo sapiens, UniProt P48147); details: protein PREP (Prolyl endopeptidase)
T12 construct: endogenous in cells; host or cells: HEK293 cell lysate

[13] = molecular target: T13, HEK293 cell lysates (proteome-wide targets of probe 9) (Homo sapiens, UniProt Q9H6P5); details: protein TASP1 (Threonine aspartase 1)
T13 construct: endogenous in cells; host or cells: HEK293 cell lysate

[14] = molecular target: T14, HEK293 cell lysates (proteome-wide targets of probe 9) (Homo sapiens, UniProt P11586); details: protein MTHFD1
T14 construct: endogenous in cells; host or cells: HEK293 cell lysate

[15] = molecular target: T15, HEK293 cell lysates (proteome-wide targets of probe 9) (Homo sapiens, UniProt P46782); details: protein RPS5
T15 construct: endogenous in cells; host or cells: HEK293 cell lysate

[16] = molecular target: T16, HEK293 cell lysates (proteome-wide targets of probe 9) (Homo sapiens, UniProt P08670); details: protein VIM
T16 construct: endogenous in cells; host or cells: HEK293 cell lysate

[17] = molecular target: T17, HEK293 cell lysates (proteome-wide targets of probe 9) (Homo sapiens, UniProt P60174); details: protein TPI1
T17 construct: endogenous in cells; host or cells: HEK293 cell lysate

[18] = molecular target: T18, HEK293 cell lysates (proteome-wide targets of probe 9) (Homo sapiens, UniProt P59998); details: protein ARPC4
T18 construct: endogenous in cells; host or cells: HEK293 cell lysate

[19] = molecular target: T19, HEK293 cell lysates (proteome-wide targets of probe 9) (Homo sapiens, UniProt P60866); details: protein RPS20
T19 construct: endogenous in cells; host or cells: HEK293 cell lysate

[20] = molecular target: T20, HEK293 cell lysates (proteome-wide targets of probe 9) (Homo sapiens, UniProt Q5T749); details: protein KPRP
T20 construct: endogenous in cells; host or cells: HEK293 cell lysate

[21] = molecular target: T21, HEK293 cell lysates (proteome-wide targets of probe 9) (Homo sapiens, UniProt Q13085); details: protein ACACA
T21 construct: endogenous in cells; host or cells: HEK293 cell lysate

[22] = molecular target: T22, HEK293 cell lysates (proteome-wide targets of probe 9) (Homo sapiens, UniProt P22314); details: protein UBA1
T22 construct: endogenous in cells; host or cells: HEK293 cell lysate

[23] = molecular target: T23, HEK293 cell lysates (proteome-wide targets of probe 9) (Homo sapiens, UniProt P13639); details: protein EEF2
T23 construct: endogenous in cells; host or cells: HEK293 cell lysate

[24] = molecular target: T24, HEK293 cell lysates (proteome-wide targets of probe 9) (Homo sapiens, UniProt P05455); details: protein SSB
T24 construct: endogenous in cells; host or cells: HEK293 cell lysate

[25] = molecular target: T25, HEK293 cell lysates (proteome-wide targets of probe 9) (Homo sapiens, UniProt Q02790); details: protein FKBP4
T25 construct: endogenous in cells; host or cells: HEK293 cell lysate

[26] = molecular target: T26, HEK293 cell lysates (proteome-wide targets of probe 9) (Homo sapiens, UniProt P06748); details: protein NPM1
T26 construct: endogenous in cells; host or cells: HEK293 cell lysate

[27] = molecular target: T27, HEK293 cell lysates (proteome-wide targets of probe 9) (Homo sapiens, UniProt P32119); details: protein PRDX2
T27 construct: endogenous in cells; host or cells: HEK293 cell lysate

[28] = molecular target: T28, HEK293 cell lysates (proteome-wide targets of probe 9) (Homo sapiens, UniProt P11142); details: protein HSPA8
T28 construct: endogenous in cells; host or cells: HEK293 cell lysate

[29] = molecular target: T29, HEK293 cell lysates (proteome-wide targets of probe 9) (Homo sapiens, UniProt P42704); details: protein LRPPRC
T29 construct: endogenous in cells; host or cells: HEK293 cell lysate

[30] = molecular target: T30, HEK293 cell lysates (proteome-wide targets of probe 9) (Homo sapiens, UniProt P08238); details: protein HSP90AB1
T30 construct: endogenous in cells; host or cells: HEK293 cell lysate

[31] = molecular target: T31, HEK293 cell lysates (proteome-wide targets of probe 9) (Homo sapiens, UniProt P07737); details: protein PFN1
T31 construct: endogenous in cells; host or cells: HEK293 cell lysate
T31 sequence (P07737 whole entry): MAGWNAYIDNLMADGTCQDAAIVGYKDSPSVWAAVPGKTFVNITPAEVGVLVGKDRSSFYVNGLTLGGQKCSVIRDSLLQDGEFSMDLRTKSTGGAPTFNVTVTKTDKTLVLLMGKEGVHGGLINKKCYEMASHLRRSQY

T12 sequence (P48147 whole entry): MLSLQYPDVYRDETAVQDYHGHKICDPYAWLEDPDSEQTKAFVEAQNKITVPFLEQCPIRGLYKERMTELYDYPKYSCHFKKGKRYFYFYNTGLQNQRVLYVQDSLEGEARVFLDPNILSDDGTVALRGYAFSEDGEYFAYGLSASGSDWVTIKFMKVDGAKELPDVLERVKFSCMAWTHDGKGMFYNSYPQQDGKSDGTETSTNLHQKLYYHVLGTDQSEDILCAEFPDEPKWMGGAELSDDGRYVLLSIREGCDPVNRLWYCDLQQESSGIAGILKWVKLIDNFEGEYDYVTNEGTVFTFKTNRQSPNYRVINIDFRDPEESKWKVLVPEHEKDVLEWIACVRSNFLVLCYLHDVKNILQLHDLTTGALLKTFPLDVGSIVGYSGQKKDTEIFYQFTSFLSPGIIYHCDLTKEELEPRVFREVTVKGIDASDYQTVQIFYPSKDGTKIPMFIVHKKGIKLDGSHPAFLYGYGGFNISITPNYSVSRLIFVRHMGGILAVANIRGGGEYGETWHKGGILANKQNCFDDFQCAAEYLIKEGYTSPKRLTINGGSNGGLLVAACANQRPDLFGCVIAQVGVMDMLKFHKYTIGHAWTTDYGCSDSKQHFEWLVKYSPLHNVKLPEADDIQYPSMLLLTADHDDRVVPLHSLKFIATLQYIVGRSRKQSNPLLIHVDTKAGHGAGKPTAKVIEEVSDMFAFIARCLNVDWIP
T13 sequence (Q9H6P5 whole entry): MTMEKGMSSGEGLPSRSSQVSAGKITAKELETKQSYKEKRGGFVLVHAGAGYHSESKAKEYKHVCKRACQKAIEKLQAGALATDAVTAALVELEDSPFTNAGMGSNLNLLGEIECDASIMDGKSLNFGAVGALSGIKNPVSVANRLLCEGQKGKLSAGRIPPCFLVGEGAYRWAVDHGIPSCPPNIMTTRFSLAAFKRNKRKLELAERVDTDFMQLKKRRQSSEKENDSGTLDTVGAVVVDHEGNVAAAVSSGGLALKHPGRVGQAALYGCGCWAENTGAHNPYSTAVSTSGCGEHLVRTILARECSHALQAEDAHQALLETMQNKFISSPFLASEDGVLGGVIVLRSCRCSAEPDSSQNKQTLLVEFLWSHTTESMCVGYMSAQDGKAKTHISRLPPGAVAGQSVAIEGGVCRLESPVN
T1 sequence (P10599 whole entry): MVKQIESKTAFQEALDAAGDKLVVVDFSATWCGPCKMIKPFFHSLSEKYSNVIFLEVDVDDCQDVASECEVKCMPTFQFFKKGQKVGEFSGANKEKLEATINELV
T16 sequence (P08670 whole entry): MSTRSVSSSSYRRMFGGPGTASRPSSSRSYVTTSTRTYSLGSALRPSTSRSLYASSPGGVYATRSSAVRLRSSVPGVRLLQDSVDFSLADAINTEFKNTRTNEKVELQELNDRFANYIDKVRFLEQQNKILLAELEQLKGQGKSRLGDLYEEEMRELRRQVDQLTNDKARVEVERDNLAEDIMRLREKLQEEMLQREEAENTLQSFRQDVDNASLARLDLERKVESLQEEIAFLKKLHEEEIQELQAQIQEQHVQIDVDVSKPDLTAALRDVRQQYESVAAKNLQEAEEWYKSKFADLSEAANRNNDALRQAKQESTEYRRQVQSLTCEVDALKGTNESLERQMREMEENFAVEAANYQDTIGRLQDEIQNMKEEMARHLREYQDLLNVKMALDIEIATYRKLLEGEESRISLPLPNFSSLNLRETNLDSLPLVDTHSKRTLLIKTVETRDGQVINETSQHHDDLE
T17 sequence (P60174 whole entry): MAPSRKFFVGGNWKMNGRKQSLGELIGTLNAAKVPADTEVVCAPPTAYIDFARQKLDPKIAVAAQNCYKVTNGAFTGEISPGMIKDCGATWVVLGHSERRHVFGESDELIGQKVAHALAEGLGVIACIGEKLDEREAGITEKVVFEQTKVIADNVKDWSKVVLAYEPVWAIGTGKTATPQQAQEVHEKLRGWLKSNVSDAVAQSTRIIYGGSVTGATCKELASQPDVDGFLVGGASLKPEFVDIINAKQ
T5 sequence (P81605 20-110): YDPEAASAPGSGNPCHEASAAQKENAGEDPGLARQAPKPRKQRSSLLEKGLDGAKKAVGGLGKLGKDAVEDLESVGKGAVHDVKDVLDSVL
T14 sequence (P11586 whole entry): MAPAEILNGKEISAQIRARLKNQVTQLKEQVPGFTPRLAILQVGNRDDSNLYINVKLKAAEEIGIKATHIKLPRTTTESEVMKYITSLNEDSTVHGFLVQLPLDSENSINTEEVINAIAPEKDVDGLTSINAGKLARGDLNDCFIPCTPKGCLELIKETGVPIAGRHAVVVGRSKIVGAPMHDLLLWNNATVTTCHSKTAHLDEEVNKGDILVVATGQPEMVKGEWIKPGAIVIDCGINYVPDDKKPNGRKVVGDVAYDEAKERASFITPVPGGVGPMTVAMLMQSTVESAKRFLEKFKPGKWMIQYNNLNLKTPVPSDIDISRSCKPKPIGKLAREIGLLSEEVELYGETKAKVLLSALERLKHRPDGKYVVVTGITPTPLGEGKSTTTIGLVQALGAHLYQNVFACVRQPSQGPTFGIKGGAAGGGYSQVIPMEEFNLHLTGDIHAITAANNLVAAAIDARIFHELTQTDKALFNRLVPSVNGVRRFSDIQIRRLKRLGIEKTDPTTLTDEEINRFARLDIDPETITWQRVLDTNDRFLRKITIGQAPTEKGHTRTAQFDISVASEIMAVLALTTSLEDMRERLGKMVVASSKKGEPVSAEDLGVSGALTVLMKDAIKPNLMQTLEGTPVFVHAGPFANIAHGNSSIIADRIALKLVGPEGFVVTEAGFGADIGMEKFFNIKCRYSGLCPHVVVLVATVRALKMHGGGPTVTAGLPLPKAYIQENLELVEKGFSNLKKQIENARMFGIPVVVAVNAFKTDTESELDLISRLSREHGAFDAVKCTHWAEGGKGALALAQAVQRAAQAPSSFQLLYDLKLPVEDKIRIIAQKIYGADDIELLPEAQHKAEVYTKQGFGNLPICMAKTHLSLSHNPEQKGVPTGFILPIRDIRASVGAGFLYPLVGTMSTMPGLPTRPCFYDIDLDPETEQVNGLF
T22 sequence (P22314 whole entry): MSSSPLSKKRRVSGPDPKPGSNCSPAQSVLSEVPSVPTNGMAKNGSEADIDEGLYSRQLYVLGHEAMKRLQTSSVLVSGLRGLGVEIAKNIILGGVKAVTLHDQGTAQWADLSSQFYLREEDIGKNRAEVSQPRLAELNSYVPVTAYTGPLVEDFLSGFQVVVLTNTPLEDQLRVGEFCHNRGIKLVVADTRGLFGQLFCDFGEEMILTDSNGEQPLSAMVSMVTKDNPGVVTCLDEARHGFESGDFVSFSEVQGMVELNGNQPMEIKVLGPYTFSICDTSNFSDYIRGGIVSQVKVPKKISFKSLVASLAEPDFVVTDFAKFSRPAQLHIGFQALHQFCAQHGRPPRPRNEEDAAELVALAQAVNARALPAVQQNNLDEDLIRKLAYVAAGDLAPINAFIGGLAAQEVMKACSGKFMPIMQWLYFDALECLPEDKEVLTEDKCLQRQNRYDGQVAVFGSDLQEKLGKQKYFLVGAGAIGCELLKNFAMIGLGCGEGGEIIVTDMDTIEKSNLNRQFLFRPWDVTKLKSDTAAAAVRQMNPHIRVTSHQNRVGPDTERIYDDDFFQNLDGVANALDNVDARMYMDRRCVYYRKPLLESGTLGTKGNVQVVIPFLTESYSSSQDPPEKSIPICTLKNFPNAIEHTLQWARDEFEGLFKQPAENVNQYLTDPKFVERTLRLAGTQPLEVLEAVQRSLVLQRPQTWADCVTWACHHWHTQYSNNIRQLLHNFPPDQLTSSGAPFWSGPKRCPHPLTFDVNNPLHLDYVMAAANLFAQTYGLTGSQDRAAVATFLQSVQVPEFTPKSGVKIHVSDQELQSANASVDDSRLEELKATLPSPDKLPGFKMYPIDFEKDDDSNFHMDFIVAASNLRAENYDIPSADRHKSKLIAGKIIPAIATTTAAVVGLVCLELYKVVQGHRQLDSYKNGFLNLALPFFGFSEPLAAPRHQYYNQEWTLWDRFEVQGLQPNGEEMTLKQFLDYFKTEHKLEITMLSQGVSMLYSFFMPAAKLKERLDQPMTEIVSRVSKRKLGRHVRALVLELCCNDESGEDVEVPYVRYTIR
T30 sequence (P08238 whole entry): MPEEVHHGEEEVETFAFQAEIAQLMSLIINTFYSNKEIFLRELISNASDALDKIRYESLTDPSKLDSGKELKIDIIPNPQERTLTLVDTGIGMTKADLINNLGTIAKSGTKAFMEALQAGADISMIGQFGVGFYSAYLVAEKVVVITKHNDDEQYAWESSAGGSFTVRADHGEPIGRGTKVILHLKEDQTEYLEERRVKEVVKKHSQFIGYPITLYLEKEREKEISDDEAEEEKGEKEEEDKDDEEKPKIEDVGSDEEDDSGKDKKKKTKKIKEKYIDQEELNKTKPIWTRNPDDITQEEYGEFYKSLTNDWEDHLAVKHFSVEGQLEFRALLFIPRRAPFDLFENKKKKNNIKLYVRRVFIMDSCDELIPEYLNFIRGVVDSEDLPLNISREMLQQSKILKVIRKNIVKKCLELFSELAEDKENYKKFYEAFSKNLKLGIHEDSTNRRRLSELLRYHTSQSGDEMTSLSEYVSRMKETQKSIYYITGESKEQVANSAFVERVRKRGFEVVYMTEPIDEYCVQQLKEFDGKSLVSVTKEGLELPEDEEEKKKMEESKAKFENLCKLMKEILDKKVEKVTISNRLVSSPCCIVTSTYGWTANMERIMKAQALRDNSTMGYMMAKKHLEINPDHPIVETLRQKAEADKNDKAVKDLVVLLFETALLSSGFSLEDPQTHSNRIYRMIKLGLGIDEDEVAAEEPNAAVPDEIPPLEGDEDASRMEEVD

SMILES: CCCCCc1ccc(SCCP(=O)(OCC)N2CCC[C@H](N)C2=O)cc1.O=C(O)C(F)(F)F (some centres unmarked) [Compound 16]
- Log2-fold change (16/9) [1]: -0.6696
- Log2-fold change (16/9) [2]: -0.3964
- Log2-fold change (16/9) [3]: -0.7288
- Log2-fold change (16/9) [4]: -0.3832
- Log2-fold change (16/9) [5]: 2.05
- Log2-fold change (16/9) [6]: -1.78
- Log2-fold change (16/9) [7]: -1.553
- Log2-fold change (16/9) [8]: -0.3266
- Log2-fold change (16/9) [9]: -0.6746
- Log2-fold change (16/9) [10]: 0.2438
- Log2-fold change (16/9) [11]: 0.1044
- Log2-fold change (16/9) [12]: -0.8405
- Log2-fold change (16/9) [13]: 0.8543
- Log2-fold change (16/9) [14]: -0.2924
- Log2-fold change (16/9) [15]: 0.301
- Log2-fold change (16/9) [16]: -0.2472
- Log2-fold change (16/9) [17]: -0.0839
- Log2-fold change (16/9) [18]: -0.1373
- Log2-fold change (16/9) [19]: -0.8733
- Log2-fold change (16/9) [20]: 0.315
- Log2-fold change (16/9) [21]: 0.3401
- Log2-fold change (16/9) [22]: -0.4211
- Log2-fold change (16/9) [23]: -0.2717
- Log2-fold change (16/9) [24]: -1.02
- Log2-fold change (16/9) [25]: -0.2833
- Log2-fold change (16/9) [26]: -0.43
- Log2-fold change (16/9) [27]: 1.348
- Log2-fold change (16/9) [28]: -0.08018
- Log2-fold change (16/9) [29]: -0.09939
- Log2-fold change (16/9) [30]: -0.3526
- Log2-fold change (16/9) [31]: -2.001

SMILES: C#CCCCP(=O)(OCC)N1CCCC(N)C1=O.O=C(O)C(F)(F)F (mixture of isomers) [Compound 9]
- Log2-fold change (9/DMSO) [1]: 1.146
- Log2-fold change (9/DMSO) [2]: 0.5764
- Log2-fold change (9/DMSO) [3]: -0.2704
- Log2-fold change (9/DMSO) [4]: 0.9053
- Log2-fold change (9/DMSO) [5]: -2.5876
- Log2-fold change (9/DMSO) [6]: -1.05
- Log2-fold change (9/DMSO) [7]: 0.5741
- Log2-fold change (9/DMSO) [8]: 1.191
- Log2-fold change (9/DMSO) [9]: 0.2732
- Log2-fold change (9/DMSO) [10]: 0.8119
- Log2-fold change (9/DMSO) [11]: -0.691
- Log2-fold change (9/DMSO) [12]: 4.8
- Log2-fold change (9/DMSO) [13]: -4.505
- Log2-fold change (9/DMSO) [14]: 0.4766
- Log2-fold change (9/DMSO) [15]: 0.2495
- Log2-fold change (9/DMSO) [16]: 0.9336
- Log2-fold change (9/DMSO) [17]: 0.2166
- Log2-fold change (9/DMSO) [18]: -0.5289
- Log2-fold change (9/DMSO) [19]: 0.9458
- Log2-fold change (9/DMSO) [20]: -0.1834
- Log2-fold change (9/DMSO) [21]: -0.276
- Log2-fold change (9/DMSO) [22]: 0.5182
- Log2-fold change (9/DMSO) [23]: 0.2112
- Log2-fold change (9/DMSO) [24]: 1.078
- Log2-fold change (9/DMSO) [25]: 0.6761
- Log2-fold change (9/DMSO) [26]: 0.3807
- Log2-fold change (9/DMSO) [27]: 0.06438
- Log2-fold change (9/DMSO) [28]: 0.1798
- Log2-fold change (9/DMSO) [29]: 0.5243
- Log2-fold change (9/DMSO) [30]: 0.02806
- Log2-fold change (9/DMSO) [31]: 0.6639
